US9233106B2, “Inhibition of beta-amyloid peptide aggregation” (CORNELL RESEARCH FOUNDATION, INC., priority 2006, dated 2016)
“Also recorded” adds a separate entry of the source.

Key:
cardiac myocytes = conditions: cited from earlier work
cardiovascular functions [1] = conditions: anesthetized rats; cited from earlier work
cardiovascular functions [2] = conditions: squirrel monkeys; cited from earlier work
[3] = conscious rats; cited from earlier work
Aβ(1-40) peptide [4] = biological target: T1, Aβ(1-40) peptide (Homo sapiens, UniProt P05067); test: Thioflavin T fluorescence assay of Aβ(1-40) peptide aggregation; conditions: for effect on Aβ(1-40) peptide aggregation: different concentrations of ligand
T1 sequence (P05067 672-711 limits assumed): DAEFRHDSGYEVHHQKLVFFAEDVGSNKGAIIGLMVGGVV

Aβ(1-40) peptide [5] = biological target: T1, Aβ(1-40) peptide; test: Electrophoretic mobility shift (gel-shift) binding assay with [3H]-cocaine; conditions: 7-μM [3H]-cocaine, 125-μM Aβ(1-40), pH 7.4; preliminary results
From the text: The gel was cast in a vertical electrophoresis system of dimensions 7×8×0.15 cm and run at 100 V for 2 hr at room temperature. Lane I contains 7-μM [^3H]-cocaine only and Lane II contains 7-μM [^3H]-cocaine and 125-μM Aβ(1-40) peptide. The gel was then phosphor imaged; the contrast of the image was enhanced using ImageJ 1.34, in the process of which the contrast of the band streaks compared to background was lost. The square boxes correspond to the free [^3H]-cocaine trapped in the well; the circle corresponds to the [^3H]-cocaine bound to Aβ(1-40). […] The position of the peptide corresponded to the [^3H]-cocaine bound to Aβ(1-40) (circle) in the phosphorimage in FIG. 3A.
On the other hand, the theoretical isolectric point of the Aβ(1-40) peptide is 5.37 (Wiltfang et al., “Highly Conserved and Disease-Specific Patterns of Carboxyterminally Truncated Aβ Peptides 1-37/38/39 in Addition to 1-40/42 in Alzheimer's Disease and in Patients with Chronic Neuroinflammation,” J. Neurochem. 81:481-496 (2002), which is hereby incorporated by reference in its entirety). […] The imaging plate is then scanned by using a Molecular Dynamics Storm 860 PhosphorImager, and band intensities are quantified by using the IMAGEQUANT software from Molecular Dynamics. […]

[6] = biological target: nicotinic acetylcholine receptor (Mus musculus, UniProt P02716+P04756+P04760+P09690); conditions: cited from earlier work
Sequence of nicotinic acetylcholine receptor (P04756 21-457): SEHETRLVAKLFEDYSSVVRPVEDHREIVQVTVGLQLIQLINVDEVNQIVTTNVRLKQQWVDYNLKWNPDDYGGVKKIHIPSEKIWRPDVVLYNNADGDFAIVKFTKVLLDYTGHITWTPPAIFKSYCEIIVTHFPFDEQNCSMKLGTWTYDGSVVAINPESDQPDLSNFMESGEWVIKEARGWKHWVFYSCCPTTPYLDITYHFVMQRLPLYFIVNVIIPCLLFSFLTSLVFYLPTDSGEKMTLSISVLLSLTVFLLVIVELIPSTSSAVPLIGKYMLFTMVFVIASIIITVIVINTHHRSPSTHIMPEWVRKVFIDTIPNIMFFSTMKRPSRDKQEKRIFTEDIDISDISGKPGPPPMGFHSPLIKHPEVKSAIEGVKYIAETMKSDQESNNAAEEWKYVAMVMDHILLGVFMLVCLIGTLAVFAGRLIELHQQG
Sequence of nicotinic acetylcholine receptor (P09690 24-501): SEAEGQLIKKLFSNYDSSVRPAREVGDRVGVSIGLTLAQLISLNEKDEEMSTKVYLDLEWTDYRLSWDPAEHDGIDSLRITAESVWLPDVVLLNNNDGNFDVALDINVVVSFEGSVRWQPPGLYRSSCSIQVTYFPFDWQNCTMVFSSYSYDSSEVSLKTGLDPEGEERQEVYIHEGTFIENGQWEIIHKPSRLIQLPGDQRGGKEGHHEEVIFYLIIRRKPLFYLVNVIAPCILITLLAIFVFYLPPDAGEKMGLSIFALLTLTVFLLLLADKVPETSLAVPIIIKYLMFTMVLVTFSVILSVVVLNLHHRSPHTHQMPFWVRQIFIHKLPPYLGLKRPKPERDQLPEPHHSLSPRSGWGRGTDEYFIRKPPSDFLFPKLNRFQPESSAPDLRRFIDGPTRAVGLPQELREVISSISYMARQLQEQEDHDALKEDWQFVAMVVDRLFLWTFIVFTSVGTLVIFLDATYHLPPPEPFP
Sequence of nicotinic acetylcholine receptor (P04760 23-519): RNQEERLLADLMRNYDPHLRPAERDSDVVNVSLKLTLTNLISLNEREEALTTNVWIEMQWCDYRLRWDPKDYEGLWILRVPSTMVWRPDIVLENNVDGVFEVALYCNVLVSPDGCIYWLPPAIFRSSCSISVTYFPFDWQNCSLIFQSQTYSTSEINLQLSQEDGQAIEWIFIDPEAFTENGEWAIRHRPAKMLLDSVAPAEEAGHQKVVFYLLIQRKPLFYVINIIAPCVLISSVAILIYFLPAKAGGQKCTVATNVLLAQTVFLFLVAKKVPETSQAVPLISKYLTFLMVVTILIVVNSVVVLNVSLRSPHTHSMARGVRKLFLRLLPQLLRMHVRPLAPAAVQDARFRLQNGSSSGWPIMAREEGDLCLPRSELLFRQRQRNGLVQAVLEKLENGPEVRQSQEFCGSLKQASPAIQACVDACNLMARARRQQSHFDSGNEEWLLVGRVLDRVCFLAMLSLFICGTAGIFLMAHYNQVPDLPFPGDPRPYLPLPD
Sequence of nicotinic acetylcholine receptor (P02716 25-520): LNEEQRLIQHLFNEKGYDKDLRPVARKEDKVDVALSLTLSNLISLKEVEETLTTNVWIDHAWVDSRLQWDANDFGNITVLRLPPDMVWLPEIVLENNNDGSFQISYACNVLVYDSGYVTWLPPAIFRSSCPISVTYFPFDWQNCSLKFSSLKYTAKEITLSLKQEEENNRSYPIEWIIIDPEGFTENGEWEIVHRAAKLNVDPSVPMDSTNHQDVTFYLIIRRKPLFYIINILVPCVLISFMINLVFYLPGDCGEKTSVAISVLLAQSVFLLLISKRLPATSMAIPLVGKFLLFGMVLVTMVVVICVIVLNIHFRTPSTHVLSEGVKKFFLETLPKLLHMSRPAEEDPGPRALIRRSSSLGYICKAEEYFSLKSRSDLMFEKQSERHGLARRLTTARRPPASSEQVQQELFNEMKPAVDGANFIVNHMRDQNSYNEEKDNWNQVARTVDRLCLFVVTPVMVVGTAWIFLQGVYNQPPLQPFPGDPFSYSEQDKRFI

[7] = biological target: T2, muscle type nicotinic acetylcholine receptor expressed in BC3H1 cells (Mus musculus, UniProt P02716+P04756+P04760+P09690); test: Whole-cell current recording, cell-flow technique, carbamoylcholine-induced currents; type: cell-based; conditions: 100-μM carbamoylcholine, listed as B55
T2 construct: nicotinic acetylcholine receptors expressed on the surface of BC3H1 cells; endogenous in cells; host or cells: BC3H1 cells
T2 sequence (P04756 21-457): as the sequence (P04756 21-457) above
T2 sequence (P09690 24-501): as the sequence (P09690 24-501) above
T2 sequence (P04760 23-519): as the sequence (P04760 23-519) above
T2 sequence (P02716 25-520): as the sequence (P02716 25-520) above
Protocol: Experiments were conducted at ˜22° C., −60 mV, and pH 7.4. The currents were induced by application of 100-μM carbamoylcholine only (lighter rising and falling line) or by a 2-second preincubation of the cells with 1-μM aptamer B55 followed by coapplication of the aptamer (at the same concentration used in preincubation) with 100-μM carbamoylcholine for 6 s (darker rising and falling line). The upper traces parallel to the abscissa represent the current amplitudes corrected for receptor desensitization that occurs during the rising phase. […] AO is the maximum current amplitude in the presence of 100-μM carbamoylcholine, and AI the maximum current amplitude in the presence of the same concentration of carbamoylcholine and different concentrations of aptamer B55. The whole-cell current was corrected for receptor desensitization. Each data point is the average of 2-4 measurements with at least two cells.
Carbamoylcholine-induced currents were recorded using the whole-cell configuration at room temperature (22-23° C.), pH 7.4, and a transmembrane voltage of −60 mV. The currents were amplified using an Axopatch 200B amplifier (Axon Instruments, Union City, Calif.) and filtered at 1 kHz (using a four-pole low-pass Bessel filter incorporated in the Axopatch 200B amplifier). […]

Aβ(1-40) peptide [8] = biological target: T1, Aβ(1-40) peptide; conditions: Ylera et al. 2002; read-out: Kd(amyloid) for the Aβ(1-40) peptide; cited from earlier work

## COC(=O)C1C(O)CC2CCC1N2C (stereo not shown)
Cardiac myocytes
  concentration with no effect on cardiovascular functions in vitro: up to 100 μM
Cardiovascular functions [1]
  dose with no effect on cardiovascular functions in vivo, i.v. infusion: up to 1.5 mg/kg/min
Cardiovascular functions [2]
  dose with no effect on cardiovascular functions in vivo, i.v. bolus: up to 10 mg/kg
[3]
  brain tissue concentration corresponding to the lowest toxic daily dose: 478.43±57.89
Aβ(1-40) peptide [4]; 50-μM Aβ(1-40), 37° C., 2 days
  effect on Aβ(1-40) peptide aggregation: inhibit aggregation of Aβ(1-40) in a dose-dependent manner; also recorded: dose-dependent inhibition
Aβ(1-40) peptide [4]; order-of-magnitude approximation calculated from FIG. 4A and CSF Aβ(1-40) concentration
  concentration required to abolish the aggregation of Aβ(1-40) in the brain (estimated therapeutic concentration): ~40 ng/g

## C[C@]12N[C@H](Cc3ccccc31)c1ccccc12 [MK-801, dizocilpine, reference compound]
Aβ(1-40) peptide [4]; 50-μM Aβ(1-40), 37° C., 2 days
  effect on Aβ(1-40) peptide aggregation: inhibit aggregation of Aβ(1-40) in a dose-dependent manner; also recorded: dose-dependent inhibition

## c1ccc(C2(N3CCCCC3)CCCCC2)cc1 [PCP, phencyclidine, reference compound]
Aβ(1-40) peptide [4]; 1-mM PCP, 50-μM Aβ(1-40), 37° C., 2 days
  effect on Aβ(1-40) peptide aggregation at 1 mM: abrogates Aβ aggregation; also recorded: abolished amyloid aggregation

## COC(=O)C1=CC(=O)C2CC(S(=O)(=O)c3ccccc3)C1N2C (stereo not shown) [RCS-III-140A]
Aβ(1-40) peptide [4]; 50-μM Aβ(1-40), 37° C., 2 days
  effect on Aβ(1-40) peptide aggregation: inhibit aggregation

## CN1C2CC(S(=O)(=O)c3ccccc3)C1C(C(=O)[O-])=CC2=O.[Li+] (stereo not shown) [RCS-III-143]
Aβ(1-40) peptide [4]; 50-μM Aβ(1-40), 37° C., 2 days
  effect on Aβ(1-40) peptide aggregation: inhibit aggregation

## COC(=O)C1=C(c2ccccc2)C(=O)C2CC(S(=O)(=O)c3ccccc3)C1N2C (stereo not shown) [RCS-III-202A]
Aβ(1-40) peptide [4]; 50-μM Aβ(1-40), 37° C., 2 days
  effect on Aβ(1-40) peptide aggregation: inhibit aggregation

## CN1C2CC(S(=O)(=O)c3ccccc3)C1C(C(=O)[O-])=C(c1ccccc1)C2=O.[Li+] (stereo not shown) [RCS-III-218]
Aβ(1-40) peptide [4]; 50-μM Aβ(1-40), 37° C., 2 days
  effect on Aβ(1-40) peptide aggregation: inhibit aggregation

## CN1C2CCC1C(C(=O)O)C(c1ccc(Cl)cc1)C2 (stereo not shown) [RTI-4229-70]
Aβ(1-40) peptide [4]; 50-μM Aβ(1-40), 37° C., 2 days
  effect on Aβ(1-40) peptide aggregation: dose-dependent inhibition
Aβ(1-40) peptide [4]; 50-μM Aβ(1-40), 37° C., 2 days, listed as RTI 4220-70
  effect on Aβ(1-40) peptide aggregation: inhibit aggregation of Aβ(1-40) in a dose-dependent manner

## COC(=O)C1C(OC(=O)c2ccccc2)CC2CCC1N2C (stereo not shown) [cocaine]
Aβ(1-40) peptide [5]
  binding of cocaine to the Aβ(1-40) peptide: binds; also recorded: direct binding
Aβ(1-40) peptide [4]; 50-μM Aβ(1-40), 37° C., 2 days
  effect on Aβ(1-40) peptide aggregation: dose-dependent inhibition

## CN1C2CCC1C(C(=O)O)C(O)C2 (stereo not shown) [ecgonine]
Aβ(1-40) peptide [4]; 50-μM Aβ(1-40), 37° C., 2 days
  effect on Aβ(1-40) peptide aggregation: inhibit aggregation of Aβ(1-40) in a dose-dependent manner; also recorded: dose-dependent inhibition

## COC(=O)C1C(OC(C)=O)CC2CCC1N2C (stereo not shown) [reference compound]
[6]
  alleviation of cocaine inhibition of the nicotinic acetylcholine receptor: does not alleviate cocaine inhibition
Aβ(1-40) peptide [4]; 50-μM Aβ(1-40), 37° C., 2 days
  effect on Aβ(1-40) peptide aggregation: does not inhibit aggregation; also recorded: dose-dependent acceleration

## UUCACCG ((i.e., UUCACCG); as printed in the source, key not given here)
Aβ(1-40) peptide [4]; 500-μM oligonucleotide, 50-μM Aβ(1-40), 37° C., 2 days
  effect on Aβ(1-40) peptide aggregation at 500 μM: abolished amyloid aggregation

B1: 5′-UUUACCGUAAGGCCUGUCUUCGUUUGACAGCGGCUUGUUGACCCUCACACUUUGUACCUGCUGCCAA-3′ (nucleic acid)
chain: UUUACCGUAAGGCCUGUCUUCGUUUGACAGCGGCUUGUUGACCCUCACACUUUGUACCUGCUGCCAA
modifications: chemistry not given here
[7]
  inhibition of carbamoylcholine-induced currents from the nicotinic acetylcholine receptor: inhibited carbamoylcholine-induced currents from the nicotinic acetylcholine receptor in a dose-dependent manner; also recorded: inhibition
Aβ(1-40) peptide [8]
  Kd: 29 nM
